Melting point data for 90 molecules are collected here from a melting point compilation (Tetko et al.; mined from patent text by program, amines drawn as free bases though some values may be those of a salt).

Some results are limits rather than exact numbers.

For `CCn1cc(C(=O)O)c(=O)c2cc(F)c(N3CCNC(CN(C)C)C3)cc21` (stereo not given), the melting point (in general, the temperature of the solid-liquid transition) lay within 148 to 150 °C.
Consider `C[C@@H]1C(=O)C[C@H]2C[C@@H]1OO[C@@]2(C)/C=C\c1ccc(Cl)cc1Cl`, for which the melting point was determined as 137 °C.
`Oc1ccc2ccc(OCCN3CCC(Cc4ccccc4)CC3)cc2c1` gave a melting point of 159 to 160 °C.
Then `CCOC(=O)CN1C(=O)C(=Cc2ccccc2)SC1=S`, with 122 to 125 °C; and `O=C1C2CCCC2=Nc2ccc(F)cc2N1Cc1ccccc1` (stereo not given), with 158 to 159 °C.
Then `O=C(Nc1cccnc1)c1cc2ccnc(Cl)c2[nH]1`, with over 320 °C.
Under `O=c1c(CCCCc2cccnc2)cc2cccnc2n1-c1cccc([N+](=O)[O-])c1` stands 184 to 185 °C; under `COc1cc(CO)ccc1OCc1nc(N2CCOCC2)sc1C`, 121 to 122 °C; under `O=C1c2ccc3c4cccc5cccc(c6ccc(c2c36)C(=O)N1CCO)c54`, over 260 °C.
For `CSc1nn2c(N(C)C)cc(C)nc2c1S(=O)(=O)c1ccccc1`, the melting point was over 230 °C.
Then `CC(C)C(=O)Nc1ccc(N)c(C(F)(F)F)c1`, with 114 to 116 °C.
As to `CC1=NN=C(c2ccc3ccccc3n2)c2cc3oc(=O)[nH]c3cc2C1`, the melting point lay in the range of 304 to 306 °C.
Take `CC#CCOc1ccc(S(=O)(=O)C(C(=O)NO)C2CCNCC2)cc1` (stereo not given): the melting point turned out to be 140 °C.
The molecule `Cn1cc(C(=O)Nc2nc(-c3ccco3)c(C(=O)c3ccccc3)s2)ccc1=O` came in with a melting point of 220 to 225 °C.
Under `CC(Br)c1ccc2onc(-c3ccc(Cl)cc3)c2c1` (stereo not given) stands 111 to 116 °C; under `OC(COc1ccccc1-c1nc2ccccc2s1)CN1CCN(C(c2ccccc2)c2ccccc2)CC1` (stereo not given), 152 to 155 °C.
Then `COC(=O)[C@@H](Cc1ccccc1)NC(=O)Nc1n[nH]c(=S)s1`, with 110 °C.
For `COc1ccc2c(c1)CN(Nc1ccncc1)CC2`, the melting point is 188 to 189 °C.
Then `O=C(O)c1cc(=O)c2ccc(COc3ccc(OCc4ccc5ccccc5n4)cc3)cc2o1`, with 216 to 219 °C.
Then `COCc1ccc(/C=C/c2c(OC)cc3c(c2OC)C(C)(C)CCC3(C)C)cc1`, with 66 to 68 °C; and `O=[N+]([O-])c1cncn1CCO`, with 101 to 102 °C; and `CCOC(=O)c1c(-c2ccc(F)cc2)cc(-c2cccc3c2OCO3)nc1C(C)C`, with 148 to 150 °C.
Regarding `CC(C)NC1=NS(=O)(=O)c2cc(Cl)cc(Cl)c2N1`, the melting point was over 230 °C.
In turn, `Cc1cc(O)ccc1-c1ccc(C=O)c(Cl)c1` showed a melting point of 125 to 127 °C.
Then `COc1ccc(C[C@H](N[C@@H](Cc2ccccc2)C(=O)O)C(=O)NCCc2ocnc2C(=O)O)cc1`, with 103 to 106 °C.
`CC1(C)Cc2cccc(OCC3CO3)c2O1` (stereo not given) gave a melting point of 51 to 52 °C.
`CCOC(=O)COc1ccccc1C(=O)Nc1ccccc1Sc1ccc(-c2nnn[nH]2)cc1` registered a melting point of 155 to 157 °C.
In the case of `O=C1Nc2cc(C(F)(F)F)ccc2Oc2ccccc21`, the melting point lay in the range of 246 to 247 °C.
Then `CCOC1=C(CCCCCCC(=O)O)C(=O)CC1`, with 65 to 66 °C.
Take `COc1ccccc1CNc1ccc2cc(Nc3cccc(C(F)(F)F)n3)ccc2n1`: the melting point is 151 °C.
Then `CCCCc1oc2ccccc2c1C(=O)N(CC)Cc1ccc2cc(OCc3nnn[nH]3)ccc2c1`, with 78 to 84 °C; and `CC(=O)Nc1ccc(CC[C@](O)(CC(=O)O)C(C)C)cc1`, with 119 to 120 °C.
Under `CCOC(OCC)N1C(=O)C(c2ncnc3cc(OCCOC)c(OC)cc23)c2ccccc21` (stereo not given) stands 148 to 150 °C; under `CCOC(=O)C1=Cc2cc(Cl)ccc2N(C)C1C(F)(F)F` (stereo not given), 118 to 120 °C; under `COC(=C(C)C#N)C(F)(F)F`, 68 to 76.5 °C.
As to `Clc1ccc(C2=NOCCS2)cc1`, the melting point fell in the range of 80.5 to 81.5 °C.
For the molecule `CCC(=O)Nc1cc(-c2sc(C(C)=O)nc2-c2cccc(C)c2)ccn1`, the melting point fell in the range of 121 to 123 °C.
Under `Cc1c(-c2cccc(O)c2)sc(C#N)c1-c1ccc(O)cc1` stands 240 to 241 °C; under `ClC1(c2cccs2)CC1c1ccccc1` (stereo not given), 61 to 63 °C.
`NC(=O)c1nnn(Cc2ccccc2)c1NC(=O)c1ccccc1`: the melting point fell in the range of 191 to 192 °C.
`c1ccc(CC[C@H]2CNCCN2)nc1`: the melting point lay within 83 to 87 °C.
Then `CCN(CC)CCOc1ccc(Nc2nccc(-c3ccncc3)n2)cc1`, with 85 to 87 °C; and `FC(F)(F)c1nncn1-c1ccc(Cl)cc1`, with 108 °C; and `Fc1cc(Cl)c2nc(Cl)sc2c1-n1nc2c(c1Cl)CCCC2`, with 161 to 163 °C.
For the molecule `CCCCc1c(C(=O)c2ccc(O)cc2)sc2ccc([N+](=O)[O-])cc12`, the melting point stood at 182 °C.
For the molecule `CCCCCCCCCCCCCCCCCCOc1ccc(OCc2ccccc2)c(C(=O)N(CC(=O)O)CC(=O)O)c1`, the melting point was 81 to 83 °C.
Under `CSC(=NC#N)N[C@@H]1c2cc(S(C)(=O)=O)ccc2OC(C)(C)[C@H]1O` (relative stereo) stands 219 to 220 °C.
Take `O=C1NC(=Cc2cccc(Cl)c2)C(=O)C1=NO`: the melting point came out at 185 °C.
Under `CN1Cc2c(C#N)ncn2-c2ccc(Cl)cc2C1=O` stands 272 to 275 °C; under `COc1ccc2[nH]c(C(N)=O)c(OC(C)C)c2c1`, 138 to 140 °C; under `CCOC(=O)CCc1cc(O)nn1C1CCCCC1`, 173 to 174 °C.
Under `Oc1ccc(-c2c(Cl)c3cc(O)ccc3n2Cc2ccc(OCCN3CCCC3)cc2)cc1` stands 233 to 235 °C; under `COC(=O)C(CC(=O)O)Cc1ccc(OC)c(OC)c1` (stereo not given), 104 to 107 °C; under `Cc1cc(CN2CCN(C)CC2)cc2c1Cc1c(-c3ccsc3)n[nH]c1-2`, 235 to 236 °C.
Under `CC(C)c1c(C(=O)c2cccnc2)c2ccccc2n1C` stands 114 °C.
The molecule `CC(C)(C)NS(=O)(=O)c1ccccc1-c1ccc(NC(=O)C(=O)O)cc1` showed a melting point of 159 °C.
Under `Cc1nc(-c2ccc(O)cc2)oc1C` stands 202 to 203 °C; under `Cc1ccc(C23CNCC2CC3=O)cc1` (stereo not given), 130 to 133 °C.
Under `CC(C)(C)OC(=O)n1c2ccccc2c(=O)n1Cc1cccc(N)c1` stands 155 °C; under `CCOC(=O)C(=Cc1cccn2cc(-c3ccccc3)nc12)N=[N+]=[N-]`, 136 to 138 °C.
Consider `O=C(C(=Cc1ccc([N+](=O)[O-])cc1)c1ccccc1)c1ccc(O)cc1`, for which the melting point fell in the range of 153 to 157 °C.
`N#Cc1ccc2oc(C(=O)CBr)cc2c1`: the melting point fell in the range of 156 to 158 °C.
Turning to `Cc1cc(C)cc(C(=O)c2c(C(C)C)c(=O)[nH]c(=O)n2Cc2ccc(N)cc2)c1`, the melting point fell in the range of 173 to 175 °C.
Take `CCOC(=O)c1cnc2c(OC)nccc2c1Nc1ccccc1C`: the melting point came to 158 °C.
Molecule `CN(C)C(=O)c1cc2c(c(C(=O)O)c1)OC(c1ccccc1)(c1ccccc1)O2` had a melting point of 207 to 208 °C.
Under `CC[C@H](NC(C)=O)c1nc2c(C(F)(F)F)cccc2c(O)c1C(=O)Nc1nccs1` stands 275 °C; under `COC(=O)c1c(C)nc2cccc(C)c2c1NCc1ccc(Br)cc1`, 150 °C; under `CC(C)(C)C(=O)N[C@H]1CC[C@H](CCN2CCC(c3cccc4c3CCO4)CC2)CC1`, 192 °C.
Under `CC(=O)OCc1coc(-c2cccc(C3=Nc4ccc(-n5cccc5)cc4NC(=O)C3)c2)n1` stands 206 to 207 °C; under `Cc1cccc(Cl)c1Nc1ccccc1CC(=O)O`, 124 to 125 °C; under `O=C1NC(=O)c2c1cc1ccc3c(c1c2-c1ccc2c(c1)OCO2)OCC3`, over 320 °C.
Consider `O=C(Nc1cccc(Cc2ccccc2)c1)c1ccn2c1CSC2c1cccnc1` (stereo not given), for which the melting point amounted to 140 °C.
The molecule `NCc1ccc(-c2csc(N=C(N)N)n2)o1` came in with a melting point of 160 to 163 °C.
`C#CCN1Cc2cccnc2N(c2cccc(Br)c2)C1=O` displayed a melting point of 118 to 119 °C.
`Cn1cncc1C(O)(c1ccc2c(c1)c(-c1cccc(Cl)c1)cc(=O)n2C)c1nccn1C` (stereo not given) returned a melting point of 130 °C.
Under `CC(=O)O[C@H]1C[C@@H](n2ccc(=O)cc2)[C@H](O)[C@@H]1O` (racemic) stands 191 to 196 °C; under `CCOc1nnc2n1C=Cc1ccccc1C2`, 143 to 144 °C.
`CCN1C(=O)CCCc2c1ccc(Nc1ncc(Cl)c(Nc3ccc(N4CCN(C)CC4)cc3OC)n1)c2OC`: the melting point is 186 to 187 °C.
Under `COc1ccc(N2CCN(c3c(C)c(C)c4c(c3C)C(=O)C(C)(C)O4)CC2)cc1OC` stands 153 to 154 °C; under `CC(C)(C)C1CCC2(CC1)CC(O)(CNC1CCCCC1)CO2` (stereo not given), 113 to 115 °C; under `O=c1[nH]c2ccc(Cl)cc2c(-c2ccccc2)[n+]1[O-]`, 267 to 269 °C.
Under `NC(=O)C12CCCN(CCC1)C2` stands 172 to 175 °C.
Regarding `CC(=O)NC(=O)c1cc([N+](=O)[O-])cnc1C(Br)Br`, the melting point amounted to 168 °C.
Under `O=C(C1CCN(c2ccncc2)CC1)N1CCN(S(=O)(=O)c2ccc(-c3ccccn3)cc2)CC1` stands 224 to 226 °C.
Under `N#Cc1c(C(F)(F)C(F)(F)F)nn(-c2c(Cl)cc(C(F)(F)F)cc2Cl)c1N` stands 160 to 162 °C; under `CCn1cc(C(=O)O)c(=O)c2cc(F)c(N3CCNC(c4cc[nH]c4)C3)cc21` (stereo not given), 220 °C.
Under `O=S(=O)(NC1Cc2ccc(CCO)cc2C1)c1ccc(Cl)cc1` (stereo not given) stands 71 to 76 °C.
Turning to `COc1ccc2c(c1)CN(Cc1ccccc1)CC(=O)N2`, the melting point amounted to 134 °C.
Under `COC(=O)c1ccc(NC(=O)c2cc(C(C)C)c(C(C)C)s2)cc1O` stands 180 to 181 °C; under `COC(=O)c1cc(-c2cccc(C(F)(F)F)c2)c(=O)n2ccccc12`, 147 to 148 °C.
